Reference: patent US20260083865A1, “PROSTATE SPECIFIC MEMBRANE ANTIGEN (PSMA) LIGANDS AND USE THEREOF” (priority 2022, published 2026)
Where two headings read alike, the source gives them in different places. Blank lines part the entries; values can stand above or below the compound they belong to. Numbered stars: 1 amine (or outer) side, 2 acyl side, 3 side chain; on linkers, the order of the positions; unused ones are H or OH. Bridge positions count the residues as written; N and C are the ends. Square brackets hold non-standard residues; d marks the D form. Peptide text beside a SMILES is read from it. * marks the point of attachment. DOTA = O=C(O)CN1CCN(CC(=O)O)CCN(CC(=O)*)CCN(CC(=O)O)CC1; Tyr(3-I) = N[C@@H](Cc1ccc(O)c(I)c1)C(=O)O; Phe(4-Cl) = N[C@@H](Cc1ccc(Cl)cc1)C(=O)O; Propanoyl(3-SO2NH2) = NS(=O)(=O)CCC(=O)*; Arg(Me) = CNC(=N)NCCC[C@H](N)C(=O)O; Lys(Me2) = CN(C)CCCC[C@H](N)C(=O)O; X1 = O=C(CC1CCN([*:1])CC1)[*:2]; Aad = N[C@@H](CCCC(=O)O)C(=O)O; Lys(Me) = CNCCCC[C@H](N)C(=O)O; NMeK = CN[C@@H](CCCCN)C(=O)O; Tle = CC(C)(C)[C@H](N)C(=O)O; 4Amb = NCc1ccc(C(=O)O)cc1; Aib = CC(C)(N)C(=O)O; CH2 = C([*:1])[*:2]; βAla = NCCC(=O)O

Columns and labels:
[1] = biological target: T1, Fc-fusion protein of human PSMA (hPSMA-Fc) (Homo sapiens, UniProt Q04609); assay: Surface plasmon resonance assay (Biacore T200, single cycle kinetic); type: binding; settings: read-out: pKD CAT (converted)
T1 construct: purchased Acro Biosystems PSA-H5264
T1 sequence (Q04609 44-750 limits assumed): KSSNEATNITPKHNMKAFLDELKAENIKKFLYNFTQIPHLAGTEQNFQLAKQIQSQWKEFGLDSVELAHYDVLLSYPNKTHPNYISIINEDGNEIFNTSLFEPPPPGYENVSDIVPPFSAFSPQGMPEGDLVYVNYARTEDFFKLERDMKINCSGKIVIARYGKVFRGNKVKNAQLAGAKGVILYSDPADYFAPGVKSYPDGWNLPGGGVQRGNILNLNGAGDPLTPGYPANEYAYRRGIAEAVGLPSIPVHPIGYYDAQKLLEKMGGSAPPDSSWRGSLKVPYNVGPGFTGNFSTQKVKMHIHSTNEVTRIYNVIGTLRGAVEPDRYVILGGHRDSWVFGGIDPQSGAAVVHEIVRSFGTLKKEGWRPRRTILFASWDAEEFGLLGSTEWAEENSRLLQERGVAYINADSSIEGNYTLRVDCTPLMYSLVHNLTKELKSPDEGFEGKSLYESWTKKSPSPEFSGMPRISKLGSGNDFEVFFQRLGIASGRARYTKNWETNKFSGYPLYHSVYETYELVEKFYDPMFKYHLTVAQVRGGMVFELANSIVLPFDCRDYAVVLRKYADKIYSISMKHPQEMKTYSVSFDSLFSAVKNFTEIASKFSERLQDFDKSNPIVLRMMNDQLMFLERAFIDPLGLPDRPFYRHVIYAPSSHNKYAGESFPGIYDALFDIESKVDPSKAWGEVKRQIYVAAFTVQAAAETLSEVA
Procedure, shortened: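 hPSMA-Fc was captured (~1000 RU) on an Fc-binding-peptide CM5 chip, and compounds were run in single cycle kinetic mode at 25° C in HBST with 0.1% DMSO. Double-blank-corrected sensorgrams were fitted to a 1:1 Langmuir model to give KD, reported as pKD.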

[2] = biological target: T2, PSMA-expressing C4-2 cells (Homo sapiens, UniProt Q04609); assay: FACS binding assay (competition with 50 nM PSM-0183); settings: read-out: pIC50 [C4-2] CAT (converted)
T2 construct: PSMA-expressing C4-2 cells (ATCC, Cat. No. CRL-3314) were cultured in RPMI-1640; host or cells: C4-2 cells
T2 sequence (Q04609 whole entry): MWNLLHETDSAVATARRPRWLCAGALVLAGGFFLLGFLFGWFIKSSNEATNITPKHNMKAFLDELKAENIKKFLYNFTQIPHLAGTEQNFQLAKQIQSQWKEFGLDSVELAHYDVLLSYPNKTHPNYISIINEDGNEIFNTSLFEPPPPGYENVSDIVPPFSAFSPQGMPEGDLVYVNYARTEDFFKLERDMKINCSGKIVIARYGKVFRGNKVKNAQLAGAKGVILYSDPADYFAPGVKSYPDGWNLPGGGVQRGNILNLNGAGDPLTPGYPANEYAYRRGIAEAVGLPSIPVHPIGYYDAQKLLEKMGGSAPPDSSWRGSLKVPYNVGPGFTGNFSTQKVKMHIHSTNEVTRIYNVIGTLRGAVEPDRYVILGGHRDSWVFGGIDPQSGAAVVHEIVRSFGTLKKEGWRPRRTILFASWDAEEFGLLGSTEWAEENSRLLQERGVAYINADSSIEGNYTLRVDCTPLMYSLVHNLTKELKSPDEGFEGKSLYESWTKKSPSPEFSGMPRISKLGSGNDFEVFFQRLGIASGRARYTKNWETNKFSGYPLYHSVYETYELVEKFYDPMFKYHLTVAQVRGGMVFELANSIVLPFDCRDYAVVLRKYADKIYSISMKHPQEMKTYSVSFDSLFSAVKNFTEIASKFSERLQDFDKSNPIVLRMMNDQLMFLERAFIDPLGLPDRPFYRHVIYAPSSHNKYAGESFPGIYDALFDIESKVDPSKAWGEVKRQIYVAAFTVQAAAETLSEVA
Procedure, shortened: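 C4-2 cells were incubated 1 h at 4 °C with 50 nM AF488-labelled peptide PSM-0183 plus increasing test compound concentrations, then washed twice in ice-cold buffer. Median fluorescence in the AF488 channel was read by flow cytometry. IC50/pIC50 was derived by 4PL fitting of MFI versus concentration.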

[3] = pKD category for PSMA SPR activity assay, hPSMA-Fc, 25° C.
[4] = pIC50 category of FACS binding, C4-2 cells
[5] = PSMA SPR assay, hPSMA-Fc, 25° C., pKD category
[6] = FACS binding, PSMA-expressing C4-2 cells, pIC50 category
[7] = SPR, hPSMA-Fc, single cycle kinetic, 25° C., category
[8] = FACS binding, C4-2 cells, competition with 50 nM PSM-0183, category

SMILES: CC(=O)N[C@H](C(=O)NC(C)(C)C(=O)N[C@@H](Cc1ccccc1)C(=O)N[C@H]1CSSC[C@@H](C(=O)N[C@H](C(=O)N[C@H](C(N)=O)[C@@H](C)O)C(C)(C)C)NC(=O)[C@H](CC(C)C)NC(=O)C(C)(C)NC(=O)[C@H](CCCNC(=N)N)NC(=O)[C@H](CCCCN)NC1=O)[C@@H](C)O [PSM-0545, Ac-Thr-Aib-Phe-[Cys-Lys-Arg-Aib-Leu-Cys]-Tle-Thr-NH2] (Ac-T[Aib]FCKR[Aib]LC[Tle]T-NH2; disulfide 4-9)
Kd [1, 3]: < 12.6 nM
IC50 [2, 4]: < 200 nM

SMILES: C[C@@H](O)[C@H](NC(=O)CN1CCN(CC(=O)O)CCN(CC(=O)O)CCN(CC(=O)O)CC1)C(=O)NC(C)(C)C(=O)N[C@@H](Cc1ccccc1)C(=O)N[C@H]1CSSC[C@@H](C(=O)N[C@H](C(=O)NCCC(N)=O)C(C)(C)C)NC(=O)[C@H](CC(N)=O)NC(=O)C(C)(C)NC(=O)[C@H](CCCNC(=N)N)NC(=O)[C@H](CCCCN)NC1=O [PSM-0539, DOTA-Thr-Aib-Phe-[Cys-Lys-Arg-Aib-Asn-Cys]-Tle-Bal-NH2] ({DOTA}-T[Aib]FCKR[Aib]NC[Tle][βAla]-NH2; disulfide 4-9)
Kd [1, 3]: 12.6 to 126 nM
IC50 [2, 4]: < 200 nM

SMILES: CNCCCC[C@@H]1NC(=O)[C@@H](NC(=O)[C@H](Cc2ccc(O)c(I)c2)NC(=O)C(C)(C)NC(=O)[C@@H](NC(C)=O)[C@@H](C)O)CSSC[C@@H](C(=O)N[C@H](C(=O)N[C@H](C(N)=O)[C@@H](C)O)C(C)(C)C)NC(=O)[C@H](CC(N)=O)NC(=O)C(C)(C)NC(=O)[C@H](CCCNC(=N)NC)NC1=O [PSM-0387, Ac-Thr-Aib-Miy-[Cys-Lys(Me)-Arg(Me)-Aib-Asn-Cys]-Tle-Thr-NH2] (Ac-T[Aib][Tyr(3-I)]C[Lys(Me)][Arg(Me)][Aib]NC[Tle]T-NH2; disulfide 4-9)
Kd [1, 3]: > 501 nM
IC50 [2, 4]: > 3160 nM

SMILES: C[C@@H](O)[C@H](NC(=O)[C@@H](NC(=O)[C@@H]1CSSC[C@H](NC(=O)[C@H](Cc2ccc(Cl)cc2)NC(=O)C(C)(C)NC(=O)CCS(N)(=O)=O)C(=O)N[C@@H](CCCCN)C(=O)N[C@@H](CCCNC(=N)N)C(=O)NC(C)(C)C(=O)N[C@@H](CC(N)=O)C(=O)N1)C(C)(C)C)C(=O)N[C@H](CCCCNC(=O)CN1CCN(CC(=O)O)CCN(CC(=O)O)CCN(CC(=O)O)CC1)C(N)=O [PSM-0328, SaPr-Aib-Pcf-[Cys-Lys-Arg-Aib-Asn-Cys]-Tle-Thr-lys(DOTA)-NH2] ({Propanoyl(3-SO2NH2)}-[Aib][Phe(4-Cl)]CKR[Aib]NC[Tle]T[dK](DOTA)-NH2; disulfide 3-8)
Kd [1, 5]: < 12.6 nM
IC50 [2, 6]: < 200 nM

SMILES: C[C@@H](O)[C@H](NC(=O)[C@@H](NC(=O)[C@@H]1CSSC[C@H](NC(=O)[C@H](Cc2ccccc2)NC(=O)C(C)(C)NC(=O)c2ccc(CNC(=O)CN3CCN(CC(=O)O)CCN(CC(=O)O)CCN(CC(=O)O)CC3)cc2)C(=O)N[C@@H](CCCCN)C(=O)N[C@@H](CCCNC(=N)N)C(=O)NC(C)(C)C(=O)N[C@@H](CC(N)=O)C(=O)N1)C(C)(C)C)C(N)=O [PSM-0270, DOTA-Pamb-Aib-Phe-[Cys-Lys-Arg-Aib-Asn-Cys]-Tle-Thr-NH2] ({DOTA-4Amb}-[Aib]FCKR[Aib]NC[Tle]T-NH2; disulfide 3-8)
Kd [1, 5]: < 12.6 nM
IC50 [2, 6]: < 200 nM

SMILES: CC(C)(NC(=O)c1ccc(CNC(=O)CN2CCN(CC(=O)O)CCN(CC(=O)O)CCN(CC(=O)O)CC2)cc1)C(=O)N[C@@H](Cc1ccccc1)C(=O)N[C@H]1CSSC[C@@H](C(=O)N[C@H](C(=O)NCCC(N)=O)C(C)(C)C)NC(=O)[C@H](CC(N)=O)NC(=O)C(C)(C)NC(=O)[C@H](CCCNC(=N)N)NC(=O)[C@H](CCCCN)NC1=O [PSM-0574, DOTA-Pamb-Aib-Phe-[Cys-Lys-Arg-Aib-Asn-Cys]-Tle-Bal-NH2] ({DOTA-4Amb}-[Aib]FCKR[Aib]NC[Tle][βAla]-NH2; disulfide 3-8)
Kd ([1]; PSMA SPR assay, category): 12.6 to 126 nM
IC50 ([2]; FACS binding, C4-2 cells, category): < 200 nM

Next, values leading:

Kd [1, 3]: 12.6 to 126 nM
IC50 [2, 4]: 200 to 1260 nM
SMILES: C[C@@H](O)[C@H](NC(=O)[C@@H](NC(=O)[C@@H]1CSSC[C@H](NC(=O)[C@H](Cc2ccc(Cl)cc2)NC(=O)C(C)(C)NC(=O)[C@@H](NC(=O)CC2CCN(C(=O)CN3CCN(CC(=O)O)CCN(CC(=O)O)CCN(CC(=O)O)CC3)CC2)[C@@H](C)O)C(=O)N(C)[C@@H](CCCCN)C(=O)N[C@@H](CCCNC(=N)N)C(=O)NC(C)(C)C(=O)N[C@@H](CC(N)=O)C(=O)N1)C(C)(C)C)C(N)=O [PSM-0548, DOTA-Cmp-Thr-Aib-Pcf-[Cys-Nmk-Arg-Aib-Asn-Cys]-Tle-Thr-NH2] ({DOTA}-[X1]T[Aib][Phe(4-Cl)]C[NMeK]R[Aib]NC[Tle]T-NH2; disulfide 5-10)

Kd [1, 5]: < 12.6 nM
IC50 [2, 6]: < 200 nM
SMILES: C[C@@H](O)[C@H](NC(=O)CC1CCN(C(=O)CN2CCN(CC(=O)O)CCN(CC(=O)O)CCN(CC(=O)O)CC2)CC1)C(=O)NC(C)(C)C(=O)N[C@@H](Cc1ccc(Cl)cc1)C(=O)N[C@H]1CSCSC[C@@H](C(=O)N[C@H](C(N)=O)C(C)(C)C)NC(=O)[C@H](CC(N)=O)NC(=O)C(C)(C)NC(=O)[C@H](CCCNC(=N)N)NC(=O)[C@H](CCCCN)NC1=O [PSM-0332, DOTA-Cmp-Thr-Aib-Pcf-[Smc-Lys-Arg-Aib-Asn-Cys]-Tle-NH2] ({DOTA}-[X1]T[Aib][Phe(4-Cl)]CKR[Aib]NC[Tle]-NH2; linker 5-10 via CH2)

Kd [1, 7]: 12.6 to 126 nM
IC50 [2, 8]: < 200 nM
SMILES: CC(C)C[C@H](NC(=O)CC1CCN(C(=O)CN2CCN(CC(=O)O)CCN(CC(=O)O)CCN(CC(=O)O)CC2)CC1)C(=O)NC(C)(C)C(=O)N[C@@H](Cc1ccccc1)C(=O)N[C@H]1CSSC[C@@H](C(=O)N[C@H](C(=O)N[C@H](C(N)=O)[C@@H](C)O)C(C)(C)C)NC(=O)[C@H](CC(N)=O)NC(=O)C(C)(C)NC(=O)[C@H](CCCNC(=N)N)NC(=O)[C@H](CCCCN)NC1=O [PSM-0220, DOTA-Cmp-Leu-Aib-Phe-[Cys-Lys-Arg-Aib-Asn-Cys]-Tle-Thr-NH2] ({DOTA}-[X1]L[Aib]FCKR[Aib]NC[Tle]T-NH2; disulfide 5-10)

Kd [1, 7]: < 12.6 nM
IC50 [2, 8]: < 200 nM
SMILES: CNC(=N)NCCC[C@@H]1NC(=O)[C@H](CCCCN(C)C)NC(=O)[C@@H](NC(=O)[C@H](Cc2ccc(Cl)cc2)NC(=O)C(C)(C)NC(=O)[C@@H](NC(=O)CC2CCN(C(=O)CN3CCN(CC(=O)O)CCN(CC(=O)O)CCN(CC(=O)O)CC3)CC2)[C@@H](C)O)CSSC[C@@H](C(=O)N[C@H](C(=O)N[C@H](C(N)=O)[C@@H](C)O)C(C)(C)C)NC(=O)[C@H](CC(N)=O)NC(=O)C(C)(C)NC1=O [PSM-0203, DOTA-Cmp-Thr-Aib-Pcf-[Cys-KMe2-Arg(Me)-Aib-Asn-Cys]-Tle-Thr-NH2] ({DOTA}-[X1]T[Aib][Phe(4-Cl)]C[Lys(Me2)][Arg(Me)][Aib]NC[Tle]T-NH2; disulfide 5-10)

Kd [1, 3]: < 12.6 nM
IC50 [2, 4]: < 200 nM
SMILES: C[C@@H](O)[C@H](NC(=O)[C@@H](NC(=O)[C@@H]1CSSC[C@H](NC(=O)[C@H](Cc2ccc(Cl)cc2)NC(=O)C(C)(C)NC(=O)[C@@H](NC(=O)CC2CCN(C(=O)CN3CCN(CC(=O)O)CCN(CC(=O)O)CCN(CC(=O)O)CC3)CC2)[C@@H](C)O)C(=O)N[C@@H](CCCC(N)=O)C(=O)N[C@@H](CCCNC(=N)N)C(=O)NC(C)(C)C(=O)N[C@@H](CC(N)=O)C(=O)N1)C(C)(C)C)C(N)=O [PSM-0485, DOTA-Cmp-Thr-Aib-Pcf-[Cys-Hgn-Arg-Aib-Asn-Cys]-Tle-Thr-NH2] ({DOTA}-[X1]T[Aib][Phe(4-Cl)]C[Aad](NH2)R[Aib]NC[Tle]T-NH2; disulfide 5-10)
